The target in one data set is Histone deacetylase 1 (Homo sapiens, UniProt Q13547). The data set is described as follows: Inhibition of HDAC1.
In data set [1] the test system is HCT-116. As to the kind of experiment: Antiproliferative activity against human HCT116 cells after 72 hrs. Particulars: HCT-116, 72 h. The data set is classed as functional.
Data set [2] concerns HCT-116. The data set is described as follows: Antitumor activity against human HCT116 cells xenografted in po dosed mouse assessed as reduction in tumor growth dosed daily for 21 days. The format is functional, organism-based. (In general: A xenograft is tissue or cells of one species grown in another, often human tumour cells in immunodeficient mice.)
Data set [3] in a line: Cmax in mouse at 150 mg/kg, po. Particulars: in vivo. The data set is classed as ADME, organism-based. Also noted: dose 150 mg/kg, route oral.
For data set [4], the system named is Mus musculus. As to the kind of experiment: Effect on histone H2B acetylation in human HCT116 cells xenografted in CD1 mouse assessed as change in ratio of acetylated to deacetylated histone level at 150 mg/kg, po QD for 3 days measured after 24 hrs. Particulars: HCT-116. On the set-up: dose 150 mg/kg. The format is functional, organism-based.
A short description of data set [5]: AUC in mouse at 150 mg/kg, po. The format is ADME, organism-based, Plasma. Also noted: dose 150 mg/kg, route oral. As to conditions: whole blood.
Data set [6] deals with Mus musculus. As to the kind of experiment: Toxicity in human HCT116 cells xenografted CD1 mouse assessed as body weight loss at 100 mg/kg, po after 21 days. The format is organism-based, HCT-116. Also noted: dose 100 mg/kg, route oral. As to conditions: in vivo, 504 h.
Data set [7] in a line: Volume of distribution at steady state in Sprague-Dawley rat. The format is ADME, organism-based. As to conditions: in vivo, read-out: Vdss.
Data set [8] can be described thus: Half life in Swiss-Webster mouse. The format is ADME, organism-based. Particulars: in vivo.
A short description of data set [9]: Plasma concentration in ip dosed nude CD-1 mouse after 3 hrs.
Data set [10] is described as follows: AUC (0 to infinity) in Swiss-Webster mouse. The format is ADME, organism-based. Also noted: time infinity. Particulars: plasma.
A short description of data set [11]: AUC (0 to infinity) in Beagle dog. The data set is classed as ADME, organism-based, Canis lupus familiaris. On the set-up: time infinity. As to conditions: plasma.
Data set [12] can be described thus: Volume of distribution at steady state in Swiss-Webster mouse. The data set is classed as ADME, organism-based. Particulars: in vivo, read-out: Vdss.
Data set [13] in a line: Half life in Beagle dog. The format is ADME, organism-based, Canis lupus familiaris. Particulars: in vivo.
The nature of data set [14]: Clearance in Sprague-Dawley rat plasma. The format is ADME, organism-based.
Data set [15] can be described thus: Half life in Sprague-Dawley rat. The data set is classed as ADME, organism-based. Particulars: in vivo.
Data set [16] is described as follows: AUC (0 to infinity) in po dosed Sprague-Dawley rat. The data set is classed as ADME, organism-based. Also noted: time infinity, route oral. As to conditions: plasma.
The nature of data set [17]: Oral bioavailability in Sprague-Dawley rat. The format is ADME, organism-based. As to conditions: in vivo.
Data set [18] can be described thus: Volume of distribution at steady state in Beagle dog. As to conditions: in vivo, read-out: Vdss. The format is ADME, organism-based, Canis lupus familiaris.

These results are taken from ChEMBL document CHEMBL1153943, “Exploring the pharmacokinetic properties of phosphorus-containing selective HDAC 1 and 2 inhibitors (SHI-1:2)” (Bioorg Med Chem Lett, 2009).

Activity calls are given as the source filed them.

Chain of Histone deacetylase 1 (Q13547 whole entry): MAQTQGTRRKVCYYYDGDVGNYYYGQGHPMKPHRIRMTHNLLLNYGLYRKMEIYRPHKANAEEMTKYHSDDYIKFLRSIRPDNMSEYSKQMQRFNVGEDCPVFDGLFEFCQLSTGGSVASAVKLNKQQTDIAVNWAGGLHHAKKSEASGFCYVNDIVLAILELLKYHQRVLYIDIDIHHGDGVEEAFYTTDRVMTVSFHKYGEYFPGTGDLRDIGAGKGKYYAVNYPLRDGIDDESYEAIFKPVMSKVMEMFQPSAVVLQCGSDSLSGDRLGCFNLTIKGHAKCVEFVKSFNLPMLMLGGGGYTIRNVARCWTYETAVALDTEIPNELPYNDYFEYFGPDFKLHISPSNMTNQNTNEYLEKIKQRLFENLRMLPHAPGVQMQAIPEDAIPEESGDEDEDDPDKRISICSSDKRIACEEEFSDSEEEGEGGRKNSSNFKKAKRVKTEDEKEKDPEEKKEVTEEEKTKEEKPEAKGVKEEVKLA

As to `CCP(=O)(Cc1ccc(C(=O)Nc2cc(-c3cccs3)ccc2N)cc1)OC` (stereo not drawn), 0.007 µM corresponded to half-maximal inhibition at Histone deacetylase 1 (IC50). Halving of growth in the data set on HCT-116 [1] (GI50) required 0.13 µM.
Turning to `COP(C)(=O)Cc1ccc(C(=O)Nc2cc(-c3cccs3)ccc2N)cc1` (stereo not drawn), the Activity entry in the data set on HCT-116 [2] is “Dose-dependent effect”; with Mus musculus [6], 22%. The peak level in data set [3] (Cmax) was 88 µM. This molecule also gave an IC50 against Histone deacetylase 1 of 0.054 µM. The result in the data set with Mus musculus [4] was Active. For the same molecule, the AUC in data set [5] was 115 µM·h. In the data set with HCT-116 [1], this molecule came in with a GI50 of 0.16 µM.
Consider `CCOP(C)(=O)Cc1ccc(C(=O)Nc2cc(-c3cccs3)ccc2N)cc1` (stereo not drawn), for which the highest level in data set [3] (Cmax) was 31 µM. At Histone deacetylase 1, this molecule yielded an IC50 of 0.016 µM. Further, in the data set with Mus musculus [4], the result was inactive. The AUC in [5] came to 50 µM·h. Also, in the data set on HCT-116 [1], growth was halved (GI50) at 0.33 µM.
On to `CCOP(=O)(O)Cc1ccc(C(=O)Nc2cc(-c3cccs3)ccc2N)cc1`, for which half-maximal inhibition on Histone deacetylase 1 (IC50) was put at 0.038 µM. This molecule displayed a GI50 in the data set on HCT-116 [1] of more than 20 µM.
For the molecule `COP(=O)(c1ccccc1)c1ccc(C(=O)Nc2cc(-c3cccs3)ccc2N)cc1` (stereo not drawn), the Cmax in data set [3] stood at 11 µM. Moreover, on Histone deacetylase 1, half-maximal inhibition (IC50) was put at 0.029 µM. The same molecule came in with an AUC in data set [5] of 12 µM·h. In the data set with HCT-116 [1], this molecule returned a GI50 of 0.38 µM.
In turn, `CCOP(=O)(Cc1cccc(C(=O)Nc2cc(-c3cccs3)ccc2N)c1)OCC` came in with an IC50 on Histone deacetylase 1 of 0.023 µM. The same molecule registered a GI50 in the data set with HCT-116 [1] of 2.5 µM.
At Histone deacetylase 1, `Nc1ccc(-c2cccs2)cc1NC(=O)c1ccc(CP(=O)(O)c2ccccc2)cc1` came in with an IC50 of 0.028 µM. In addition, the GI50 in the data set on HCT-116 [1] is more than 20 µM.
`CCOP(=O)(CC)Cc1ccc(C(=O)Nc2cc(-c3cccs3)ccc2N)cc1` (stereo not drawn): the Cmax in data set [3] amounted to 17 µM. Further, half-maximal inhibition at Histone deacetylase 1 (IC50) required 0.0065 µM. The same molecule returned an exposure (AUC) in data set [5] of 17 µM·h. The molecule further had a GI50 in the data set with HCT-116 [1] of 0.24 µM.
Turning to `CCOP(=O)(c1ccccc1)c1ccc(C(=O)Nc2cc(-c3cccs3)ccc2N)cc1` (stereo not drawn), the concentration in data set [3] peaked (Cmax) at 0.56 µM. The same molecule had an IC50 on Histone deacetylase 1 of 0.021 µM. In [5], the AUC was determined as 0.91 µM·h. This molecule also registered a GI50 in the data set on HCT-116 [1] of 0.17 µM.
In the case of `CCOP(=O)(OCC)c1ccc(C(=O)Nc2cc(-c3cccs3)ccc2N)cc1`, the midpoint of inhibition at Histone deacetylase 1, the IC50, lay at 0.022 µM. In the data set with HCT-116 [1], this molecule gave a GI50 of 0.41 µM.
In the same order, the values of `COP(=O)(Cc1ccc(C(=O)Nc2cc(-c3cccs3)ccc2N)cc1)c1ccccc1` (stereo not drawn) are 0.02 µM and 0.36 µM.
`CCOP(C)(=O)c1ccc(C(=O)Nc2cc(-c3cccs3)ccc2N)cc1` (stereo not drawn) showed a peak concentration (Cmax) in [3] of 43 µM. The molecule further had an IC50 at Histone deacetylase 1 of 0.014 µM. Moreover, the area under the curve (AUC) in data set [5] was determined as 44 µM·h. This molecule also had a GI50 with HCT-116 [1] of 0.46 µM.
In the case of `CCP(=O)(CC)Cc1cccc(C(=O)Nc2cc(-c3cccs3)ccc2N)c1`, half-maximal inhibition against Histone deacetylase 1 (IC50) was put at 0.27 µM. The GI50 in the data set with HCT-116 [1] was more than 20 µM.
In turn, `CCP(=O)(Cc1cccc(C(=O)Nc2cc(-c3cccs3)ccc2N)c1)OC` (stereo not drawn) returned an IC50 on Histone deacetylase 1 of 0.09 µM. In the data set on HCT-116 [1], halving of growth (GI50) required 6 µM.
For `CCP(=O)(CC)Cc1ccc(C(=O)Nc2cc(-c3cccs3)ccc2N)cc1`, the Cmax in [3] worked out at 14 µM. On Histone deacetylase 1, this molecule came in with an IC50 of 0.009 µM. The AUC in [5] came out at 17 µM·h. Moreover, in the data set with HCT-116 [1], the GI50 turned out to be 0.2 µM.
With `COP(C)(=O)c1ccc(C(=O)Nc2cc(-c3cccs3)ccc2N)cc1` (stereo not drawn), the highest level in data set [3] (Cmax) was 39 µM. The half-maximal inhibitory concentration (IC50) against Histone deacetylase 1 was 0.052 µM. The same molecule showed an AUC in data set [5] of 60 µM·h. This molecule also had a GI50 with HCT-116 [1] of 0.42 µM.
At Histone deacetylase 1, `CCOP(=O)(O)c1ccc(C(=O)Nc2cc(-c3cccs3)ccc2N)cc1` displayed an IC50 of 0.042 µM. This molecule came in with a GI50 with HCT-116 [1] of more than 20 µM.
`CC(C)P(=O)(Cc1ccc(C(=O)Nc2cc(-c3cccs3)ccc2N)cc1)C(C)C` gave a maximum concentration (Cmax) in [3] of 1.9 µM. On Histone deacetylase 1, this molecule returned an IC50 of 0.011 µM. Besides, the AUC in data set [5] worked out at 1.3 µM·h. The molecule also displayed a GI50 in the data set with HCT-116 [1] of 0.27 µM.
As to `CCOP(=O)(Cc1ccc(C(=O)Nc2cc(-c3cccs3)ccc2N)cc1)OCC`, the Vd is 7.27 L/kg in [7], 20.1 L/kg in [12] and 2.85 L/kg in [18]. Further, the half-life in data set [8] was 55 h; in data set [13], 0.43 h; in data set [15], 5.5 h. The molecule also gave a concentration at 3 h in [9] of 1.54 µM. The AUC(0-inf) in [10] came to 0.17 µM·h; in data set [11] it was 0.25 µM·h; in data set [16], 4.4 µM·h. For the same molecule, the clearance in [14] came out at 15.8 mL/min/kg. This molecule also came in with an IC50 on Histone deacetylase 1 of 0.013 µM. Further, in data set [17], the bioavailability was 45%. The GI50 with HCT-116 [1] amounted to 0.25 µM.
Regarding `CP(=O)(Cc1ccc(C(=O)Nc2cc(-c3cccs3)ccc2N)cc1)OCc1cccnc1` (stereo not drawn), the highest level in [3] (Cmax) was 8.8 µM. Moreover, half-maximal inhibition at Histone deacetylase 1 (IC50) was put at 0.0035 µM. In data set [5], this molecule yielded an AUC of 16 µM·h. Also, in the data set on HCT-116 [1], the GI50 turned out to be 0.13 µM.
For the molecule `COP(=O)(Cc1cccc(C(=O)Nc2cc(-c3cccs3)ccc2N)c1)c1ccccc1` (stereo not drawn), at Histone deacetylase 1, the 50% inhibitory concentration (IC50) is 0.14 µM. In the data set on HCT-116 [1], this molecule gave a GI50 of 8.6 µM.

By IC50 is commonly meant the concentration at which inhibition is half-maximal. The term GI50 denotes the concentration that inhibits growth by half. High values mean less potent growth inhibition, low ones more potent growth inhibition. In general, Cmax refers to the maximum level reached in the sampled fluid or tissue. As usually defined, the AUC is concentration integrated over time. The low end stands for low exposure, the high end for high exposure. For orientation: half-life means the time needed for the level to fall by half in the phase considered. Read a low half-life as rapid decline. As usually defined, the AUC(0-inf) is the area under the concentration-time curve extrapolated to infinity. A low value points to low exposure. The clearance is the volume of plasma or blood freed of the substance per unit of time. High values mean efficient removal, low ones inefficient removal. What is called bioavailability is the share of a dose that reaches the circulation, judged against a reference dose that is usually intravenous. Higher therefore signals much systemic uptake.
